In article PMC11855827, “High-Throughput Screening of Five Compound Libraries for Anthelmintic Activity and Toxicity Leads to the Discovery of Two Flavonoid Compounds” (International Journal of Molecular Sciences, 2025):
Read-outs that look alike come from different tables or passages of the source.

Test system: C. elegans
Experiment: microbe, parasite or virus in culture
Conditions: Caenorhabditis elegans
[1] = 0 h, read-out: Percentage of motility inhibition 0 h, Table S2, C. elegans SS assay, 110 μM, 0 h, averages of 4 data points
[2] = 24 h, read-out: Percentage of motility inhibition 24 h, Table S2, C. elegans SS assay, 110 μM, 24 h, averages of 4 data points
[3] = 0 h, read-out: Percentage of motility inhibition 0 h
[4] = 24 h, read-out: Percentage of motility inhibition 24 h

SMILES | inhibition at 110 µM [1] | inhibition at 110 µM [2] | also measured
CC(C)CNC(=O)/C=C/C=C/c1ccc2c(c1)OCO2 [Piperlonguminine] | 34% | 22% | 
C/C(=C\C(=O)OCCCCCCCCC(=O)O)C[C@@H]1OC[C@H](C[C@@H]2O[C@H]2[C@@H](C)[C@H](C)O)[C@@H](O)[C@H]1O [Mupirocin] | 10% | 11% | 
CS(=O)(=O)c1ccc([C@@H](O)[C@@H](CF)NC(=O)C(Cl)Cl)cc1 [Florfenicol] | 29% | 9% | 
O=C(O)[C@H]1O[C@@H](Oc2c(O)cc(O)c3c(=O)c(O)c(-c4ccc(O)c(O)c4)oc23)[C@H](O)[C@@H](O)[C@@H]1O [Hibifolin] | 6% | 1% | 
C/C=C(\C)C(=O)O[C@H]1[C@H](OC(C)=O)[C@]2(CO)[C@H](O)C[C@]3(C)C(=CC[C@@H]4[C@@]5(C)CC[C@H](O[C@@H]6O[C@H](C(=O)O)[C@@H](O[C@@H]7O[C@H](CO)[C@@H](O)[C@H](O)[C@H]7O)[C@H](O)[C@H]6O[C@@H]6O[C@H](CO)[C@@H](O)[C@H](O)[C@H]6O)[C@](C)(CO)[C@@H]5CC[C@]43C)[C@@H]2CC1(C)C [Escin IA] | 0% | 0% | 
COc1ccc2c(c1)CC=C(CO)c1cc3c(cc1-2)OCO3 [Tenuifolin] | 0% | 1% | 
C[C@H](O)C(=O)O [L-Lactic acid] | 16% | 21% | 
C/C=C1/[C@H](O[C@@H]2O[C@H](CO)[C@@H](O)[C@H](O)[C@H]2O)OC=C(C(=O)OC)[C@H]1CC(=O)OCCc1ccc(O)c(O)c1 [Oleuropein] | 0% | 0% | 
C=C(C)[C@@H]1CC=C2C(=CC[C@]3(C)[C@@H]([C@@H](CCC=C(C)C)C(=O)O)[C@H](O)C[C@@]23C)[C@@]1(C)CCC(=O)O [Poricoic acid B] | 14% | 0% | 
O=c1cc(-c2ccc(O)cc2)oc2cc(O)cc(O)c12 [Apigenin] | 12% | 3% | 
C[C@@H]1O[C@@H](O[C@H]2[C@H](O[C@H]3CC[C@@]4(C)[C@@H](CC[C@]5(C)[C@@H]4CC=C4[C@@H]6CC(C)(C)CC[C@]6(C(=O)O)CC[C@]45C)[C@]3(C)CO)OC[C@H](O)[C@@H]2O)[C@H](O)[C@H](O)[C@H]1O [alpha-Hederin] |  |  | inhibition at 110 µM [3]: 6%; inhibition at 110 µM [4]: 0%
COC(=O)C1=CO[C@@H](O)[C@@H]2C(CO)=CC[C@H]12 [Genipin] | 0% | 0% | 
COC(=O)N[C@H](C(=O)N1CC2(CC2)C[C@H]1c1nc(-c2ccc3c(c2)C(F)(F)c2cc(-c4ccc5[nH]c([C@@H]6[C@H]7CC[C@H](C7)N6C(=O)[C@@H](NC(=O)OC)C(C)C)nc5c4)ccc2-3)c[nH]1)C(C)C [Ledipasvir] | 25% | 1% | 
CC(C)[C@@H]1CC[C@@H](C)CC1=O [Menthone] | 17% | 17% | 
CC(C)=CCC[C@](C)(O[C@@H]1O[C@H](CO[C@@H]2O[C@H](CO)[C@@H](O)[C@H](O)[C@H]2O)[C@@H](O)[C@H](O)[C@H]1O)[C@H]1CC[C@]2(C)[C@@H]1[C@H](O)C[C@@H]1[C@@]3(C)CC[C@H](O[C@@H]4O[C@H](CO)[C@@H](O)[C@H](O)[C@H]4O)C(C)(C)[C@@H]3CC[C@]12C [Gypenoside XVII] | 4% | 4% | 
CC(C)CC(C)c1sccc1NC(=O)c1cn(C)nc1C(F)(F)F (stereo not drawn) [Penthiopyrad] | 21% | 18% | 
O=c1c(O[C@@H]2O[C@H](CO)[C@H](O)[C@H](O)[C@H]2O)c(-c2ccc(O)c(O)c2)oc2cc(O)cc(O)c12 [Hyperoside] | 14% | 11% | 
COc1cc(O)c(C(=O)/C=C/c2ccc(O)cc2)c(OC)c1 [Flavokawain C] | 18% | 20% | 
O=C(O)c1ccccc1O [Salicylic acid] | 12% | 8% | 
N[C@@H](CCC(=O)O)C(=O)O [L-Glutamic acid] | 3% | 1% | 
Nc1ncnc2c1ccn2[C@@H]1O[C@H](CO)[C@@H](O)[C@H]1O [Tubercidin] | 5% | 0% | 
CC1=C[C@]2(O)O[C@@]3(CC2=C(C)C)[C@@H](C)CC[C@@H]13 [Curcumenol] | 0% | 38% | 
O=C(O)c1cc(O)c(O)c(O)c1 [Gallic acid] | 66% | 34% | 
COC1=C[C@]23CCCN2CCc2cc4c(cc2[C@@H]3[C@@H]1O)OCO4 [Cephalotaxine] | 0% | 0% | 
Cn1nnc(-c2ccc(-c3ccc(N4C[C@H](CO)OC4=O)cc3F)cn2)n1 [Tedizolid] | 20% | 12% | 
COc1c(N2CCNC(C)C2)c(F)cc2c(=O)c(C(=O)O)cn(C3CC3)c12 (stereo not drawn) [Gatifloxaci n] | 0% | 0% | 
O=C(O)CCC(=O)O [Succinic acid] | 14% | 15% | 

SMILES | inhibition at 110 µM [1] | inhibition at 110 µM [2] | also measured
C=CC(C)(O)CCC=C(C)CCC=C(C)C (mixture of isomers) [Nerolidol] | 7% | 7% | 
C=C1CCC[C@]2(C)CC[C@@H](C(C)(C)O)C[C@@H]12 [Beta-Eudesmol] | 0% | 6% | 
Nc1nc(O)c2ncn(COC(CO)CO)c2n1 [Ganciclovir] | 22% | 5% | 
Cc1cccc(C)c1OCC(=O)N[C@@H](Cc1ccccc1)[C@@H](O)C[C@H](Cc1ccccc1)NC(=O)[C@H](C(C)C)N1CCCNC1=O [Lopinavir] | 17% | 14% | 
CCCCCCCCCCCCCCCCO [1-Hexadecanol] | 17% | 0% | 
O=C(O)[C@H]1C2CCC(CC2)[C@@H]1Nc1nc(-c2c[nH]c3ncc(F)cc23)ncc1F [Pimodivir] | 7% | 9% | 
CO[C@H]1/C=C/O[C@@]2(C)Oc3c(C)c(O)c4c(O)c(c5c(nc6cc(C)ccn65)c4c3C2=O)NC(=O)/C(C)=C\C=C\[C@H](C)[C@H](O)[C@@H](C)[C@@H](O)[C@@H](C)[C@H](OC(C)=O)[C@@H]1C [Rifaximin] | 7% | 1% | 
O=C(Nc1ncc([N+](=O)[O-])s1)c1ccccc1O [Tizoxanide] | 40% | 53% | 
CN1C(=O)/C(=C2/C(=O)Nc3ccccc32)c2ccccc21 [Meisoindigo] | 0% | 0% | 
O=C(CC1NCCCC1O)Cn1cnc2cc(Br)c(Cl)cc2c1=O (stereo not drawn) [Halofuginone] | 18% | 11% | 
CN1[C@@H]2CC[C@H]1C[C@@H](O)C2 [Tropine] | 9% | 0% | 
COc1cccc(O)c1-c1cc(=O)c2c(O)c(OC)c(OC)c(OC)c2o1 [Skullcapflavone II] |  |  | inhibition at 110 µM [3]: 4%; inhibition at 110 µM [4]: 6%
Cc1ccc2[nH]c3ccccc3c2c1 [3‐Methylcarbazole] | 0% | 29% | 
CC(CC(=O)C[C@@H](C)[C@H]1CC(=O)[C@@]2(C)C3=C(C(=O)[C@@H](O)[C@]12C)[C@@]1(C)CC[C@H](O)C(C)(C)[C@@H]1C[C@@H]3O)C(=O)O (stereo partly drawn) [Ganoderic acid G] | 0% | 3% | 
OC[C@H]1O[C@@H](O[C@H]2[C@H](O)[C@@H](O)C(O)O[C@@H]2CO)[C@H](O)[C@@H](O)[C@H]1O (mixture of isomers) [Lactose] |  |  | inhibition at 110 µM [3]: 54%; inhibition at 110 µM [4]: 10%
O=C(CCCCc1ccc2c(c1)OCO2)N1CCCCC1 [Tetrahydropiperine] | 0% | 0% | 
C/C=C1\[C@H]2C=C(C)C[C@]1(N)c1ccc(=O)[nH]c1C2 [(‐)‐Huperzine A] | 0% | 4% | 
C/C=C(/C)C(=O)O[C@H]1[C@@H]2[C@H](C)C(=O)O[C@@H]2C[C@@H](C)[C@@H]2C=CC(=O)[C@]21C [Brevilin A] |  |  | inhibition at 110 µM [3]: 0%; inhibition at 110 µM [4]: 0%
CC(=O)Oc1ccccc1C(=O)Nc1ncc([N+](=O)[O-])s1 [Nitazoxanide] | 51% | 49% | 
C[C@H](O)[C@H](O)[C@H]1CNc2nc(N)[nH]c(=O)c2N1 [Tetrahydrobiopterin] | 0% | 3% | 
O=C1CN(/N=C/C=C/c2ccc([N+](=O)[O-])o2)C(=O)N1 [Furagin] | 6% | 0% | 
CC(=O)O[C@@H]1C[C@]23C4=CC[C@@]5(C)[C@H](C(=O)O)[C@@](C)([C@H](C)C(C)C)CC[C@]5(C)[C@H]4CC[C@H]2[C@@](C)(COC3O)[C@H]1O[C@@H]1O[C@H](CO)[C@@H](O)[C@H](O)[C@H]1O (stereo partly drawn) [Enfumafungin] | 0% | 60% | 
COc1ccc2c(OC)c3ccoc3nc2c1 [Evolitrine] | 0% | 15% | 
C#C[C@]1(O)CC[C@H]2[C@@H]3CCc4cc(O)ccc4[C@H]3CC[C@@]21C [Ethinylestradiol] | 33% | 15% | 
OC[C@@H](O)[C@H](O)[C@@H](O)CO [Xylitol] | 22% | 13% | 
O=C(O)c1cccnc1 [Niacin] | 0% | 14% | 
O=C(Nc1cc(Cl)cc(Cl)c1O)c1c(O)c(Cl)cc(Cl)c1Cl [Oxyclozanide, reference compound] |  |  | inhibition at 110 µM (0 h, read-out: Inhibition (%) 110 μM (0 h), C. elegans L4 motility, 110 μM, 0 h, mean ± SD of four experiments): 10 ± 9%; inhibition at 110 µM (24 h, read-out: Inhibition (%) 110 μM (24 h), C. elegans L4 motility, 110 μM, 24 h, mean ± SD of four experiments): 93 ± 5%
